Data from patent publication EP4563571A1, “PRMT5 INHIBITORS” (Beijing Earthwise Technology Co., Ltd., priority 2022, dated 2024).

Assays:
[1] = system: HCT116^MTAP Deletion cells; test: Anti-proliferation assay on cells (Cell-Titer Glo, 10 days); type: cell-based; details: HCT116^MTAP Deletion cells, 10 days incubation, CTG readout; read-out: HCT116^MTAP Deletion GI50
Procedure, shortened: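 HCT116^MTAP Deletion cells seeded at 50 cells/well and exposed to 10-point 3-fold compound dilutions in duplicate (0.1% DMSO) for 10 days at 37 °C. Viability read by CellTiter-Glo luminescence; IC50 derived from GI50 curves of concentration versus inhibition.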

[2] = system: SDMA in HCT116^MTAP Deletion; test: In-Cell Western Assay of cellular SDMA; type: cell-based; details: HCT116^MTAP Deletion cells, 96 hours; read-out: SDMA inhibition IC50 (µM) in HCT116^MTAP Deletion
Experimental: (§1) Compound dissolution: All the compounds were dissolved in dimethyl sulfoxide (DMSO) and then stored. The compounds were stored at -20°C for long term storage.
(§2) 2.3 Cell culture and passaging
The cells were cultured strictly in accordance with ATCC requirements. […] The supernatant was removed. The cells were resuspended with complete culture medium, inoculated into a culture dish at the required density, and cultured in an incubator at 37 °C, 95% humid air, and 5% carbon dioxide. The culture medium was replenished or the cells were passaged every 2-3 days depending on the cell growth condition.
2.4 In-Cell Western Assay of SDMA
When the confluency of cells in the culture dish reached about 90%, the cells were washed twice with PBS, and then digested with trypsin. 100 µl of the cells was inoculated into each well of a 96-well plate (800 cells/well). The plate was incubated overnight in a 37 °C and 5% CO2 incubator. 50 µL of 3x final concentration of a compound was added to the cell culture plate. Each compound was subjected to a 3-fold dilution, resulting in 10 concentration gradients, in duplicate, and the final concentration of DMSO was 0.5%. The plate was incubated in a 37 °C and 5% CO2 incubator for 96 hours.
150µL of 8% paraformaldehyde was added to each well, and the plate was incubated at room temperature for 15 minutes. The supernatant was discarded. The plate was washed with PBS, and 200µL of freshly prepared 1x Permeabilization buffer was added to each well. The plate was incubated at room temperature for 30 minutes. The supernatant was discarded. 200µL of 1x Blocking buffer was added to each well, and the plate was incubated at room temperature for 2 hours. The supernatant was discarded. 50µL of primary antibody (CST, 1x Incubation buffer 1:500 dilution) was added to each well, and the plate was incubated at 4°C overnight. The supernatant was discarded. 250µL of 1x Washing buffer was added to each well, and the plate was washed three times. 50µL of secondary antibody (IRDye 800CW Goat anti-Rabbit IgG and CellTag 700 dye, 1:800 and 1:500 diluted in Incubation buffer) was added to each well, and the plate was incubated at room temperature for 1 hour. The supernatant was discarded. The plate was washed with 1x Washing buffer. Signals were detected using Licor Odyssey CLX. […] According to the different drug concentrations and their corresponding inhibition rates, the IC50 curve was drawn using GraphPad 8.0 software. The data were analyzed, and the final IC50 value was obtained. […] Table 3 Inhibitory activity on cellular SDMA

HCT116 cells = test: Anti-proliferation assay on cells (Cell-Titer Glo, 10 days); type: cell-based; details: ratio of GI50 values
Experimental: Assay example 1: Method of anti-proliferation assay on cells
HCT116^MTAP Deletion cells were from Pharmaron (China); HCT116 cells were from ATCC; McCoy's 5A medium was purchased from Invitrogen (USA); penicillin-streptomycin and fetal bovine serum were purchased from Gibco (USA); a 384-well plate was purchased from PerkinElmer (USA); and Cell-Titer Glo reagent was purchased from Promega (USA).
Compound dissolution: All the compounds were dissolved in dimethyl sulfoxide (DMSO) and then stored. The compounds were stored at room temperature in a dry condition for 3 months for short term storage or at -20 °C for long term storage.
Cell culture and passaging
The cells were cultured strictly in accordance with ATCC requirements. The cell culture medium (McCoy's 5A medium + 10% fetal bovine serum + 1% penicillin + streptomycin) was transferred to a 15 mL centrifuge tube and centrifuged at 1000 rpm for 5 min. The supernatant was removed. The cells were resuspended with complete culture medium, inoculated into a culture dish at the required density, and cultured in an incubator at 37 °C, 95% humid air, and 5% carbon dioxide. The culture medium was replenished or the cells were passaged every 2-3 days depending on the cell growth condition.
Cell proliferation activity assay
When the confluency of cells in the culture dish reached about 90%, the cells were washed twice with PBS, and then treated with trypsin to become single cells. The cells were counted, and 40µl of the cells was inoculated into each well of a 384-well plate (50 cells/well). The plate was equilibrated at 37 °C and 5% carbon dioxide for 10 to 15 minutes. The compounds were injected into the 384-well plate using Echo550, and positive control and negative control (0.1% DMSO) were set up. Each compound was subjected to a 3-fold dilution, resulting in 10 concentration gradients, in duplicate, and the content of DMSO was 0.1%. The 384-well plate was incubated in a cell culture incubator for 10 days.
Then, 40 µl of cell proliferation assay reagent (CTG) was added to the 384-well plate, and the plate was shaken to mix well. Then, the 384-well plate was incubated at 37 °C and 5% carbon dioxide in the dark for 30 minutes. The data were read using the Envision multifunctional microplate reader. […] According to the different drug concentrations and their corresponding inhibition rates, the GI50 curve was drawn using GraphPad 8.0 software. The data were analyzed, and the final IC50 value was obtained.
In addition, the compounds of the present disclosure also have selectivity for mutant HCT116 cells. […] The selectivity data of representative compounds are shown in Table 2: Table 2 Selectivity data of representative compounds

SDMA in HCT116 = test: In-Cell Western Assay of cellular SDMA; type: cell-based; details: HCT116 cells, 96 hours; read-out: SDMA inhibition IC50 (µM) in HCT116
Description: Assay example 2: Method of In-Cell Western Assay of cellular SDMA
HCT116^MTAP Deletion cells were from Horizon; HCT116 cells were from ATCC; RPMI-1640 medium was purchased from ATCC (USA); penicillin-streptomycin was purchased from Gibco (USA); fetal bovine serum was purchased from ExCell; 96-well plate was purchased from Corning (USA); Symmetric Di-Methyl Arginine Motif [sdme-RG] antibody was purchased from CST (USA); IRDye 800CW Goat anti-Rabbit IgG secondary antibody was purchased from LI-COR (USA), and CellTag 700 stain was purchased from LI-COR (USA).
as §1, §2
The cells were cultured strictly in accordance with ATCC requirements. The cell culture medium (RPMI-1640 medium + 10% serum + 1% penicillin + streptomycin) was transferred to a 15 mL centrifuge tube and centrifuged at 1000 rpm for 5 min. The supernatant was removed. […]
150µL of 8% paraformaldehyde was added to each well, and the plate was incubated at room temperature for 15 minutes. […] Signals were detected using Licor Odyssey CLX. […] The data were analyzed, and the final IC50 value was obtained. […]

[3] = Brain permeability in CD1 mice after oral gavage administration; type: in vivo, Mouse/CD1/Male; design: unit not given here; details: 30 mg/kg PO, 0.25-8 hours
Experimental: Assay example 4 Investigation of brain permeability in CD1 mice after oral gavage administration
4.1.1 Information of administration
4.1.3 Collection and processing of blood sample
4.1.4 Evaluation during the in vivo experiment
4.2 Test sample and preparation
4.2.1 Information of test sample
All the samples were analyzed by LC-MS/MS, and the concentration of the drug to be tested in the samples was determined by the standard curve method.
For the plasma assay results, the pharmacokinetic parameters were calculated using WinNonlin (Phoenix™) or other similar software.

SMILES | GI50 [1] | IC50 [2] | Selectivity multiple of HCT116^MTAP WT GI50/ HCT116^MTAP Deletion GI50 (HCT116 cells) | IC50 (SDMA in HCT116) | Brain AUClast/D ([3]; brain) | CSF AUClast/D ([3]; cerebrospinal fluid) | Plasma AUClast/D ([3]; plasma)
CN(C(=O)C(=O)Nc1cnc(N)c2c1cnn2C)C1COCc2nc(C(F)(F)F)ccc21 (single isomer, unassigned) [Example 152-P2] | < 10 nM | 0.01 to 0.1 µM | – | – | – | – | –
Cc1ncc(-c2ccc3c(c2)COCC3N(C)C(=O)C(=O)Nc2cnc(N)c3c2cnn3C)s1 (centres unmarked) [Example 135] | < 10 nM | < 0.01 µM | 285 | – | – | – | –
C[C@H](c1ncccn1)N(Cc1ccc(C(F)(F)F)cn1)C(=O)C(=O)Nc1cnc(N)c2c1COC2 [Example 2] | 10 to 100 nM | < 0.01 µM | – | – | – | – | –
CN(C(=O)C(=O)Nc1cnc(N)c2c1cnn2C)C1COCc2cc(C3=CCOCC3)ccc21 (centres unmarked) [Example 132-P1] | < 10 nM | < 0.01 µM | 266 | – | – | – | –

Further lines, results first:

GI50 [1] | IC50 [2] | Selectivity multiple of HCT116^MTAP WT GI50/ HCT116^MTAP Deletion GI50 (HCT116 cells) | IC50 (SDMA in HCT116) | Brain AUClast/D ([3]; brain) | CSF AUClast/D ([3]; cerebrospinal fluid) | Plasma AUClast/D ([3]; plasma) | SMILES
– | < 0.01 µM | – | – | – | – | – | CN(C(=O)C(=O)Nc1cnc(N)c2c1cnn2C)C1COCc2cc(-c3ccnn3C)ccc21 (centres unmarked) [Example 156-P1]
– | < 0.01 µM | 252 | – | – | – | – | CN(C(=O)C(=O)Nc1cnc(N)c2c1cnn2C)C1COc2cc(-c3ccnn3C)ccc21 (centres unmarked) [Example 192-P1]
< 10 nM | < 0.01 µM | 385 | 0.1 to 1 µM | 428 | 6.15 | 464 | CN(C(=O)C(=O)Nc1cnc(N)c2c1cnn2C)C1COc2cc(C(F)(F)F)ccc21 (single isomer, unassigned) [Example 112-P1]
